Consider 61 compounds from a melting point compilation (Tetko et al.; mined from patent text by program, amines drawn as free bases though some values may be those of a salt).

Each structure is given as a SMILES string.

The compound `CC(=O)NC1CCC(=O)C(=CN(C)C)C1` (stereo unspecified) yielded a melting point of 132 to 133 °C.
In the case of `COc1ccc(C2=NN(c3ccccc3)C(=O)[C@H]3CC=CC[C@@H]23)cc1Cl` (relative stereo) it was 151 to 152 °C; in that of `O=C(O)CCC(=O)Nc1cccc(-c2ccnc3c(C(=O)c4cccs4)cnn23)c1`, 240 to 241 °C; in that of `CC(C)=CCc1cc(C=CC(=O)c2ccc(O)cc2O)ccc1O`, 167 °C.
Take `CN(C)C(=O)c1ccc2ccccc2c1-c1ccccc1`: the melting point lay in the range of 86 to 87 °C.
In the case of `N#CCc1nc(N)nc(N)c1-c1ccc(Cl)cc1Cl` it was 249 to 251 °C; in that of `Cc1ccc(-c2c(Cl)ncnc2NS(=O)(=O)c2ccc(C(C)(C)COC3CCCCO3)cc2)cc1` (stereo unspecified), 141 to 144 °C; in that of `OC(c1nccs1)(c1nccs1)C(F)(F)F`, 113 to 115 °C.
In the case of `COC1=C(OC)C(=O)C2=C(CC(CCCCOc3ccc(CO)cc3)C2)C1=O` it was 72 to 75 °C.
For `N#Cc1cnn(-c2ccc(CBr)cc2)n1`, the melting point was 147 to 148 °C.
The result for `Cc1cc(Cn2nnc(C(N)=O)c2N)cc(Cl)c1C(=O)c1ccc(C(F)(F)F)cc1` reads 201 to 202 °C; that for `CC(C)(C)C(F)(F)c1ccc(C[C@H]2NC(=O)O[C@H]2c2cccc(Cl)c2)cc1` (racemic), 188 to 190 °C; that for `CCCCc1nc(Sc2ccccc2)c(CO)n1Cc1ccc(-c2ccccc2C(=O)O)cc1`, 215 °C.
The result for `CC(C)NC(=O)NCC(=O)O` reads 178 °C.
The result for `C=C1C(=O)NC(=O)N1c1ccc(Cl)cc1` reads 185 to 187 °C.
`CC(C)CCOc1c(-c2ccc(S(C)(=O)=O)cc2)cnn(CC(F)(F)F)c1=O` came in with a melting point of 111 to 113 °C.
Regarding `Cc1cc(OCC(F)(F)F)c(NC(=O)CBr)c(OCC(F)(F)F)n1`, the melting point is 153 to 154 °C.
In the case of `CN1CCc2cc(O)c(O)c(Sc3ccsc3)c2CC1` it was 189 to 191 °C.
Compound `CC(C)C(=O)N(Cc1ccccc1)c1nnn(Cc2ccccc2)n1` displayed a melting point of 68 °C.
In the case of `C[C@@H]1CNC[C@H](C)N1Cc1ccc(COc2cccc3c2CN(C2CCC(=O)NC2=O)C3=O)cc1` (stereo partly specified) it was 253 to 255 °C; in that of `C=CCCCCCCCCC(=O)N1CCN(c2cc(N3CCCC3)nc(N3CCCC3)n2)CC1`, 93 to 96 °C; in that of `COC(=O)N1CCN(C(=O)c2cc(S(=O)(=O)NN(C)C)ccc2N)CC1`, 169 to 171 °C.
In turn, `COc1ccc(-c2nn(CC(C)C)c(=O)c(CO)c2-c2ccc(OC)cc2)cc1` registered a melting point of 121 to 122 °C.
The compound `COc1cc(NC(C)=O)c(Cl)cc1NC(=O)N1CCN(Cc2ccccc2)CC1` registered a melting point of 174 °C.
The result for `CCOC(=O)CC(=O)c1cc(F)c(Cl)cc1Cl` reads 44 to 45 °C.
In the case of `COc1ccc(S(=O)(=O)C2(C(=O)NO)CCN(C(C)C)CC2)cc1` it was 75 °C.
The result for `COc1ccc(C)cc1N1CCN(C(=O)Nc2cc3ccccc3nc2OC)CC1` reads 115 to 116 °C; that for `CN(C)c1ccc2cc(C(/C=C\NCCO)=C(C#N)C#N)ccc2c1`, 168 to 170 °C.
In the case of `CC1(C)OC(c2ccc(-c3ccc(Cl)cc3)cc2)OC1=O` (stereo unspecified), the melting point was in the range of 108 to 110 °C.
The result for `COC(=O)C[C@H]1CC[C@H](n2nc(-c3c(-c4ccccc4)nn4ccccc34)ccc2=O)C1` (relative stereo) reads 105 to 107 °C; that for `COc1ccc2c(c1)CCC(c1ccc(F)cc1)C2=O` (stereo unspecified), 124 to 127 °C.
For `CNC(=NS(C)(=O)=O)NCCCCCc1nc(N)nc(NC(N)=NCC(F)(F)F)n1`, the melting point is 131 to 133 °C.
The result for `OC(c1ccccc1)(c1cccc(C(F)(F)F)c1)N1CCCCC1` (stereo unspecified) reads 97 to 100 °C; that for `FC(F)(F)c1ccc(Oc2ccc3nonc3c2)cc1`, 77 to 78 °C; that for `CCOC(=O)N1CCc2cc(S(=O)(=O)n3cc(-c4ccccc4)[nH]c3=O)ccc21`, 214 to 216 °C.
In the case of `COC(=O)c1cc(C(=O)c2ncc3ccccn23)ccc1NC(=O)c1ccccc1` it was 218 °C.
In the case of `CC(C)c1nc(CN(C)C(=O)N[C@H](C(=O)N[C@@H](Cc2ccccc2)C[C@H](O)[C@H](Cc2ccccc2)NC(=O)OCc2cnc(C(C)C)s2)C(C)C)cs1` it was 64 to 66 °C; in that of `O=C(Nc1ccc(F)cc1)NC1CCN(C(=O)c2cccnc2)CC1`, 118 to 122 °C; in that of `CS(=O)(=O)NCCCCn1c(CCO)nc2c(N)nc3ccccc3c21`, 206 to 208 °C.
The compound `CN(Cc1ccc(F)cc1)C1CCN(c2ccc(C#N)cc2)CC1` showed a melting point of 100 to 101 °C.
In the case of `O=C(O)C1Cc2c(ncn2Cc2ccccc2)CN1C(=O)C(c1ccccc1)c1ccccc1` (stereo unspecified) it was 167 to 169 °C; in that of `O=C(CNC(=O)CSC(=O)c1ccccc1)CNC(=O)CSC(=O)c1ccccc1`, 134 to 140 °C.
The result for `CCCCCCCCCCCCCC=CCC(O)C(=O)O` (stereo unspecified) reads 78 to 79.5 °C.
In the case of `COC(=O)c1ccc(Cn2c(=O)c(C)c3sc(C(=O)NCc4ccc(F)cc4)cn3c2=O)cc1` it was above 215 °C; in that of `OC1CSC(Oc2cncc(-c3cc4ccccc4o3)c2)C(O)C1O` (stereo unspecified), 210 °C; in that of `CCN1CCC2(CC1)COc1cc3c(cc12)N(C(=O)c1ccc(-c2ccc(-c4noc(C)n4)cc2C)cc1)CC3`, 202 to 204 °C.
`FC(F)(F)c1nnnn1-c1cccc2ccccc12` showed a melting point of 108 °C.
The result for `CCCCn1nc2c(N)nc3ccccc3c2c1CC(C)(C)C` reads 163 to 164 °C; that for `CC(C)CNC(=O)c1cc([N+](=O)[O-])cc([N+](=O)[O-])c1`, 149 to 155 °C.
On to `CC(=O)N1CCC(C(=O)N(CCCN2CCC(Cc3ccccc3)CC2)c2ccc(C)c(Cl)c2)CC1`, for which the melting point is 96 to 99 °C.
On to `N#CCNC(=O)C(F)(F)F`, for which the melting point was in the range of 39 to 40 °C.
In the case of `CCCCn1ccc(-c2ccc(Oc3ccc(C(=O)O)cc3)cc2)c(Cl)c1=O` it was 280 °C.
In the case of `Cc1nc2sccn2c(=O)c1CCN1CCC(n2ccc3ccccc32)CC1`, the melting point amounted to 134 °C.
The result for `CCC(=O)c1ccc2c(ccn2S(=O)(=O)c2ccc(C)cc2)c1` reads 162 to 164 °C; that for `COc1ccc(S(=O)(=O)C(c2cc(F)ccc2F)c2cc(N)ncc2Cl)cc1` (stereo unspecified), 153 to 155 °C; that for `CC(Cc1c[nH]c2ccccc12)(NC(=O)OC1C2CC3CC(C2)CC1C3)C(=O)NCCc1cccc(NC(=O)CCC(=O)O)c1` (stereo unspecified), 78 to 82 °C.
Compound `O=C(O)CC1(C(=O)O)CCSc2ccccc21` (stereo unspecified) registered a melting point of 168 to 170 °C.
In the case of `CCC(=O)N1CCC(NC(=O)Nc2cccc(F)c2)CC1` it was 158 to 164 °C; in that of `CC(=O)c1ccc2oc3ccc(C(C)=O)cc3c(=O)c2c1`, 226 to 228 °C.
The result for `CCCCCCCCC(=O)Nc1cc([N+](=O)[O-])ccc1O` reads 140 to 141 °C; that for `COc1cc(N=CN(C)C)c(Cl)cc1C(=O)NC1CN2CCC1CC2` (stereo unspecified), 178 to 180 °C.

A word on the melting point: it is the temperature of the solid-liquid transition.
